The values below come from patent US10653172B2, “Natural stilbenes as sweeteners or sweetener enhancer” (Analyticon Discovery GmbH, priority 2015, dated 2020).

The test system of experiment [1] is panel of 3 sweet sensitive panelists. The experiment can be described thus: Organoleptic test of sweetness enhancement in combination with sucrose. Type of experiment: in vivo. The following applies: concentration stated to be near the sweetness detection threshold. Here is the method:
Organoleptic Test of the Compounds of Formula (I) in Combination with Known Sweeteners
Combination of (I) with Sucrose.
The sweetness enhancement properties of compound Aa and Bb was determined using a sample having a concentration of 100 μg/ml compound Aa and Bb, which is near the sweetness detection threshold, in 7% sucrose solution. The compound Aa and Bb sample was directly compared to samples of 7%, 8% or 9% sucrose, and panelists were instructed to compare the sweetness intensity of the samples. The comparisons were carried out by a panel of 3 sweet sensitive panelists. All samples were presented to panelists in 5 ml aliquots at ambient temperature. Panelists compared the compound Aa and Bb sample to each of the sucrose samples.

Experiment [2] concerns panel of 4 panelists. The experiment can be described thus: Organoleptic test of intrinsic sweet taste against sucrose. In kind it is in vivo. The following applies: 0.5 mg/ml (500 ppm) in non-carbonated mineral water; for sweetness compared with a solution of sucrose 20 mg/ml (control solution): control sucrose 20 mg/ml. Here is the method: Organoleptic Test of the Compounds of Formula (I) Against Sucrose
Intrinsic sweet taste: The isolated pure compounds were dissolved in non-carbonated mineral water (“Fonsana Quelle”) in a concentration of 0.5 mg/ml (500 ppm). The sweet taste of each sample was compared by a panel of 4 panelists with a solution of sucrose in a concentration of 20 mg/ml.

For `COc1cc(/C=C/c2cc(O)cc(O)c2)ccc1O[C@@H]1O[C@H](CO)[C@@H](O)[C@H](O)[C@H]1O` [Compound Aa, Gnetifolin E], the sweetness detection threshold in experiment [1] is roughly 100 µg/mL. In experiment [2], the off-taste entry is listed as “no significant off-taste” and the “sweetness compared with a solution of sucrose 20 mg/ml (control solution)” value was “comparable with the control solution”.
On to `OC[C@H]1O[C@@H](Oc2ccc(/C=C/c3cc(O)cc(O)c3)cc2O)[C@H](O)[C@@H](O)[C@@H]1O` [Compound Bb, Piceatannol 4′-O-β-D-glucopyranoside], for which the sweetness detection threshold in experiment [1] was roughly 100 µg/mL. In experiment [2], the off-taste entry is listed as “no significant off-taste” and the “sweetness compared with a solution of sucrose 20 mg/ml (control solution)” value is “comparable with the control solution”.
